According to patent US20090162351A1, “Transdiscal administration of inhibitors of p38 MAP kinase” (DePuy Spine, Inc., priority 2007, published 2009):
Where two headings read alike, the source gives them in different places.

Key:
[1] = test system: PGE2 synthesis in injured bovine cartilage explants; experiment: Drop tower model: PGE2 synthesis in injured cartilage explants; format: cell-based; conditions: for inhibition at 1 µM / inhibition at 10 µM: Bos taurus, injured cartilage explants; for effect on PGE2 synthesis (in words): drop tower model, cocktail of cytokines
Experimental: (§1) In the second method, the explants were cultured at 37° C., 5% CO2 either in stimulated or non-stimulated conditioned medium as described above or in defined medium containing DMEM supplemented with 1% FCS, 1× insulin-transferrin-sodium selenite media supplement and Antibiotics-Antimycotics in the presence or absence of a cocktail of cytokines containing 10 ng/ml of IL-1β, 100 ng/ml of TNFα and 5 ng/ml of IFN-γ. The compounds were solubilized in H2O, Ethanol or DMSO (10^−2 M) according to suppliers' instructions and further diluted with either conditioned medium stimulated with or without LPS to the required concentrations. DMSO concentrations in the culture media never exceeded 1%. This concentration of DMSO has no effect on cartilage proteoglycan metabolism in response to cytokines. The injured and noninjured cartilage explants were treated with compound-containing medium for three to five days. The specimens were first treated with compounds at desired concentrations at 37° C. for one hour and then incubated for three to five days in the absence or presence of the cocktail of cytokines. At the end of the incubation, media and cartilage samples were harvested and frozen for further analysis.
PGE2 was measured with STAT-Prostaglandin E2 EIA ELISA kit (Cayman Biochemicals), as described in Example III above. The antibody-PGE2 complex binds to a goat polyclonal anti-mouse IgG that has been previously attached to the well. After washing to remove any unbound reagents, para-nitrophenyl phosphate (pNPP) was added to the well. The product of this enzymatic reaction absorbs strongly at 412 nm. Because of the large range in response to IL-1β and other cytokines, PGE2 values were converted to log scale prior to doing t-tests.

[2] = target: p38a MAP kinase (Homo sapiens, UniProt Q16539); experiment: Binding to p38a MAP kinase; conditions: read-out: binds p38a MAP kinase, Kd
[3] = test system: annulus fibrosus and nucleus pulposus cells from bovine caudal discs treated with IL-1β; experiment: 3D in vitro disc cell model: GAG (DMMB); format: cell-based
Description: Three-dimensional in vitro annulus fibrosis (AF) and nucleus pulposus (NP) models were established to investigate proteoglycan modulation and changes in gene expression in response to inflammatory cytokines such as interleukin-1 (e.g., IL-1β) and potential therapeutic agents such as growth and differentiation factor (GDF-5), and p38 MAP kinase inhibitors. AF and NP cells from bovine caudal discs were isolated by enzymatic digestion and seeded (2×10^6 cells/cm^2) onto Millipore CM filters coated with Collagen Type II and cultured in DMEM/20% heat-inactivated FBS, 100 ug/ml ascorbic acid and 5 ng/ml TGFβ1. […] Results were evaluated by histology (Tol. Blue staining was used to observe matrix production). Dimethylmethylene blue (DMMB) was used to detect sulphated glycosaminoglycans in a GAG/DNA assay. Taqman analysis was performed on aggrecans (AGG), collagen type 1 (col-1), collagen type 2 (col-2), and MMP 3, MMP 9 and MMP 13. In FIGS. 19A-C and 20A-C, annulus fibrosus and nucleus pulposus cells from bovine caudal discs were isolated by enzymatic digestion and seeded (2×10^6 cells/cm2) onto Millipore CM filters coated with Collagen Type II and cultured in DMEM/20% heat-inactivated FBS/100 ug/ml ascorbic acid and 5 ng/ml TGF-β1.

[4] = test system: NO production in injured bovine cartilage explants; experiment: Drop tower model: NO production in injured cartilage explants; format: cell-based; conditions: for inhibition at 10 µM: Bos taurus, injured cartilage explants; for effect on NO production (in words): drop tower model, cocktail of cytokines
Experimental: as §1
Nitrate/Nitrite was measured using the Griess reaction (Green L. C. et al., “Analysis of Nitrate, Nitrite, and [15N]nitrate in Biological Fluids,” Anal. Biochem. 126: 131-138 (1982)) with a Nitrate/Nitrite Colorimetric Assay Kit (Cayman Chemicals), as described in Example III above.

[5] = target: T1, COX2 (Homo sapiens, UniProt P35354); experiment: COX2 inhibition; format: biochemical; conditions: read-out: inhibitor of COX2, IC50
T1 sequence (P35354 18-604): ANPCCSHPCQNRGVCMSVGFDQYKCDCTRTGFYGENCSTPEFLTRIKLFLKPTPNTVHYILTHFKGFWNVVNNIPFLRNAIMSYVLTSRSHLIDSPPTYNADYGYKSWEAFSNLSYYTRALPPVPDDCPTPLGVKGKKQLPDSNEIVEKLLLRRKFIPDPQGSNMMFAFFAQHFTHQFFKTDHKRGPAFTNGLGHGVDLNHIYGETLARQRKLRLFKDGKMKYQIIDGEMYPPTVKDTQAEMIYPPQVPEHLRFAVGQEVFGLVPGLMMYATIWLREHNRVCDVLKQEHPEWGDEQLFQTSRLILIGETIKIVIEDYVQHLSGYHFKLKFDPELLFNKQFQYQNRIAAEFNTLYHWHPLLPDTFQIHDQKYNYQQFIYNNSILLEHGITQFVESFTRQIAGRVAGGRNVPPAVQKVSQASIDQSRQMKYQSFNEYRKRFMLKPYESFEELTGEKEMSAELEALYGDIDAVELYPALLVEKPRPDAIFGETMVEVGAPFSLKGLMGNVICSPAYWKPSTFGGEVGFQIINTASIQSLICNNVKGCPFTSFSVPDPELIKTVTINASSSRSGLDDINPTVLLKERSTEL

[6] = target: JNK2 (Homo sapiens, UniProt P45984); experiment: JNK2 inhibition; format: biochemical; conditions: read-out: inhibitor of JNK2, IC50
[7] = target: COX1 (Homo sapiens, UniProt P23219); experiment: COX1 inhibition; format: biochemical; conditions: read-out: inhibitor of COX1, IC50
[8] = target: p38α MAP kinase (h-p38α) (Homo sapiens, UniProt Q16539); experiment: p38α MAP kinase inhibition (direct enzyme assay); format: biochemical; conditions: read-out: inhibitor of p38a MAP kinase, IC50
[9] = test system: LPS-induced TNF in human peripheral blood mononuclear cells (hPBMC); experiment: LPS-induced TNF in hPBMC; format: cell-based; conditions: read-out: inhibitor of LPS-induced TNF hPBMC, IC50
[10] = test system: TNFα in human whole blood; experiment: TNFα inhibition, human whole blood assay (h-WBA / HWB); format: cell-based
[11] = test system: JNK; experiment: JNK inhibition; format: biochemical; conditions: read-out: inhibitor of JNK, IC50
[12] = target: inactivated p38 MAP kinase (Homo sapiens, UniProt Q16539); experiment: Binding to inactivated p38 MAP kinase; conditions: read-out: binds to inactivated p38 MAP kinase, Kd
[13] = Rat PK; format: in vivo

p38α MAP kinase (h-p38α), sequence (Q16539 whole entry): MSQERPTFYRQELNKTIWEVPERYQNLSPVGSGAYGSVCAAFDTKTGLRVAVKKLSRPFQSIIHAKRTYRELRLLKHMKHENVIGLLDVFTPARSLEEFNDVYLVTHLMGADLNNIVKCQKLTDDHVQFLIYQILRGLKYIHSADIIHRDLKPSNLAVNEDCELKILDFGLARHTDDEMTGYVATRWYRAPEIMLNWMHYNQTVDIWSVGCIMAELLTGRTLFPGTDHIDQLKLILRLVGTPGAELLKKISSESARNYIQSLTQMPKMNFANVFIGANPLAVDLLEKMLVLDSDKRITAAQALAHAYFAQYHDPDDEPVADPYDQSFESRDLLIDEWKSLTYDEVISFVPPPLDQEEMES
COX1, sequence (P23219 24-599): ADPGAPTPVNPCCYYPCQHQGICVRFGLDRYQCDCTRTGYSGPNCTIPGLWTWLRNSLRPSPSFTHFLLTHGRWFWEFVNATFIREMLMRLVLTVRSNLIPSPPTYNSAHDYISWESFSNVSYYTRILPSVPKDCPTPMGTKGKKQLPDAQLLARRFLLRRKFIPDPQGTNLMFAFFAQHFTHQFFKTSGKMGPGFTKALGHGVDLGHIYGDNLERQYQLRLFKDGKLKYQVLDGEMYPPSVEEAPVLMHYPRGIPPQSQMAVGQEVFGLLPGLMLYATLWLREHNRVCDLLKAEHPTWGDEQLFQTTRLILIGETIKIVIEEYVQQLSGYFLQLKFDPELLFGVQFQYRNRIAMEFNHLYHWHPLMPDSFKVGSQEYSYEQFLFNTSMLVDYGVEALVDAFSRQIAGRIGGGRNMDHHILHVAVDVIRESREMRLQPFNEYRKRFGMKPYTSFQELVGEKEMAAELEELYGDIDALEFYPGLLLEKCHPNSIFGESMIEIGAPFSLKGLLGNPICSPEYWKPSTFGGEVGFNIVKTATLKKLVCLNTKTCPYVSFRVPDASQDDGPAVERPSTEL
JNK2, sequence (P45984 whole entry, species assumed): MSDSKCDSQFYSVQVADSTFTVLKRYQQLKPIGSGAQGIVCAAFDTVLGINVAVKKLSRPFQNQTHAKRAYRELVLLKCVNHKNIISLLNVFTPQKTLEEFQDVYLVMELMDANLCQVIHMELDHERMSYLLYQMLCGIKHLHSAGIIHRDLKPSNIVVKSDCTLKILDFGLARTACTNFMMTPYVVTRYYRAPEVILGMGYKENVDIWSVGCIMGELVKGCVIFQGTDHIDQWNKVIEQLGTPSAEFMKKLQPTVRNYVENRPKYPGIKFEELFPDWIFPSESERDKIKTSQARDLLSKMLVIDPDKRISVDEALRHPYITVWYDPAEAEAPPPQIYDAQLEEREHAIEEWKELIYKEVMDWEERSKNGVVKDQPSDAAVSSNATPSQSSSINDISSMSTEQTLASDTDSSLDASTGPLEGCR
inactivated p38 MAP kinase, sequence (Q16539 whole entry): as the sequence (Q16539 whole entry) above
p38a MAP kinase, sequence (Q16539 whole entry): as above

| SMILES | IC50 [5] [µM] | IC50 [7] [µM] | IC50 [8] [µM] | inhibition at 1 µM [1] [%] | inhibition at 10 µM [1] [%] | effect on PGE2 synthesis (in words) [1] | inhibition at 10 µM [4] [%] | effect on NO production (in words) [4] | other results |
| --- | --- | --- | --- | --- | --- | --- | --- | --- | --- |
| CC(=O)N1CCN(c2c(-c3ccncc3)c(-c3ccc(F)cc3)c(C#N)n2C)CC1 [JNJ 17089540 (RWJ 669307)] | > 10 | > 10 | 2 | – | – | dose-dependently inhibited | – | dose-dependently inhibited | Kd [12]: 0.1 µM; IC50 [9]: 0.22 µM |
| C[C@@H]1CN(Cc2ccc(F)cc2)[C@@H](C)CN1C(=O)c1cc2cc(C(=O)C(=O)N(C)C)[nH]c2cc1Cl [SCIO-282 (SD 282)] | – | – | – | – | – | dose-dependently inhibited | – | dose-dependently inhibited | EC50 ([10]; 10× diluted, read-out: inhibits TNFα h-WBA (EC50)): 0.07 µM; Rat (F) PK, F % ([13]; female rat): 46% |
| C[C@@H]1CN(Cc2ccc(F)cc2)[C@@H](C)CN1C(=O)c1cc2c(C(=O)C(=O)N(C)C)cn(C)c2cc1Cl [SCIO-469 (SD 469)] | – | – | – | – | – | inhibited | – | inhibited | EC50 ([10]; Homo sapiens, 10× diluted, read-out: inhibits TNFα h-WBA (EC50)): 1.6 µM; EC50 ([10]; Homo sapiens, Table 2, read-out: TNFα Inhibition h-WBA (EC50)): 1.6 µM; half-life ([13]; in vivo, female rat, read-out: Rat (F) PK, t1/2 (converted)): 60 min; bioavailability ([13]; in vivo, male rat, read-out: Rat (M) PK, F %): 15%; half-life ([13]; in vivo, male rat, read-out: Rat (M) PK, t1/2 (converted)): 30 min |
| COc1ccc(-n2nc(CCC(=O)N(C)O)cc2-c2ccc(Cl)cc2)cc1 [Tepoxalin, reference compound] | – | – | – | 77 | 90 | – | 100 | – | – |

Further lines, with some results ahead:

| IC50 [5] [µM] | IC50 [7] [µM] | IC50 [8] [µM] | SMILES | inhibition at 1 µM [1] [%] | inhibition at 10 µM [1] [%] | effect on PGE2 synthesis (in words) [1] | inhibition at 10 µM [4] [%] | effect on NO production (in words) [4] | other results |
| --- | --- | --- | --- | --- | --- | --- | --- | --- | --- |
| > 10 | > 10 | 0.02 | OCCC#Cc1nc(-c2ccc(F)cc2)c(-c2ccncc2)n1CCCc1ccccc1 [JNJ 3026582 (RWJ 67657), 4-[4-(4-fluorophenyl)-1-(3-phenylpropyl)-5-(4-pyridinyl)-1H-imidazol-2-yl]-3-butyn-1-ol] | 33 | 90 | dose-dependently inhibited | 66 | dose-dependently inhibited | Kd [2]: 0.009 µM; amount of GAG in the tissue (in words) ([3]; 10 ng/ml IL-1β, inhibitor 1 μM, rhGDF-5 200 ng/ml): restored; GAG release (in words) ([3]; Example V, IL-1β-treated disc cells): prevented GAG release in a dose dependent manner; IC50 [6]: 0.08 µM; IC50 ([9]; Homo sapiens, PBMC): 0.004 µM |
| > 10 | > 10 | 0.001 | C[C@H](Nc1nccc(-c2c(-c3ccc(F)cc3)nc3nc(N)ccn23)n1)c1ccccc1 [JNJ 7583979 (RWJ 351958)] | – | – | – | – | – | IC50 ([10]; Homo sapiens, read-out: inhibitor of TNF human whole blood (HWB), IC50): 0.005 µM; IC50 [11]: 0.012 µM |
